The species named for assay [1] is Canis familiaris. Briefly: Inotropic selectivity was assessed by normalizing changes in heart rate to the 50% levels in mongrel dogs. The class given is functional, Canis lupus familiaris.
Assay [2] is filed under the species Canis familiaris. Briefly: Cardioselectivity was estimated by normalizing changes in diastolic blood pressure to the 50% levels of contractile force in mongrel dogs. Format: functional, Canis lupus familiaris, Artery.
Assay [3] has as its system Canis familiaris. The assay can be described thus: In vivo dose causing a 50% increase in right ventricular contractile force in mongrel dogs. Format: functional, Canis lupus familiaris, Heart right ventricle.
Assay [4] relates to Canis familiaris. The assay can be described thus: In vivo dose causing a 100% increase in right ventricular contractile force in mongrel dogs. The class given is functional, Canis lupus familiaris, Heart right ventricle.
For assay [5], the species on record is Canis familiaris. The assay can be described thus: Inotropic selectivity was assessed by normalizing changes in heart rate to the 100% levels in mongrel dogs. The class given is functional, Canis lupus familiaris.
For assay [6], the species on record is Canis familiaris. Briefly: Cardioselectivity was estimated by normalizing changes in diastolic blood pressure to the 100% levels of contractile force in mongrel dogs. The class given is functional, Canis lupus familiaris, Artery.

Each structure is given as a SMILES string.

Turning to `CC(Cc1ccc(O)cc1)NC1CCc2cc(O)c(O)cc2C1` (centres undefined), in assay [1], the “Delta HR” value was found to be 23 beats min-1. The Delta blood pressure in assay [2] is given as -25 mmHg. In assay [3], this molecule gave an Inotropic potency of 680 nM/kg.

For `CC(Cc1ccc(O)c(O)c1)NC1CCc2cc(O)ccc2C1` (centres undefined), the Inotropic potency is 85 nM/kg in assay [4] and 25 nM/kg in assay [3]. Also, the “Delta HR” value was determined as 49 beats min-1 in assay [5] and 30 beats min-1 in assay [1]. The Delta blood pressure is -66 mmHg in assay [6] and -46 mmHg in assay [2].

In the case of `COc1ccc(CC(C)NCCc2ccc(O)c(O)c2)cc1OC` (centres undefined), the Inotropic potency came to 1100 nM/kg in assay [4] and 490 nM/kg in assay [3]. The entries for the “Delta HR” value in assay [5] and in assay [1] were 17 beats min-1 and 10 beats min-1, respectively. Also, the Delta blood pressure in assay [6] was -31 mmHg; in assay [2], -24 mmHg.

Consider `Oc1cc2c(cc1O)CC(NC1CCc3c(ccc(O)c3O)C1)CC2` (centres undefined), for which the Inotropic potency came to 590 nM/kg in assay [4] and 210 nM/kg in assay [3]. Moreover, the results for the “Delta HR” value in assay [5] and in assay [1] were 31 beats min-1 and 24 beats min-1, respectively. Moreover, the Delta blood pressure is listed as -55 mmHg in assay [6] and -61 mmHg in assay [2].

For the molecule `CC(Cc1ccc(O)c(O)c1)NCCc1ccc(O)c(O)c1` (centres undefined), the Inotropic potency in assay [4] was 13 nM/kg; in assay [3], 4 nM/kg. The “Delta HR” value turned out to be 39 beats min-1 in assay [5] and 26 beats min-1 in assay [1]. Moreover, the Delta blood pressure in assay [6] is given as -34 mmHg; in assay [2], -19 mmHg.

Consider `Oc1cc2c(cc1O)CC(NC1CCc3cc(O)c(O)cc3C1)CC2` (centres undefined), for which the Inotropic potency stood at 2650 nM/kg in assay [4] and 961 nM/kg in assay [3]. The “Delta HR” value in assay [5] turned out to be 62 beats min-1; in assay [1], 31 beats min-1. Further, the Delta blood pressure is 84 mmHg in assay [6] and -78 mmHg in assay [2].

Take `CC(Cc1ccc(O)c(O)c1)NC1CCc2cc(O)c(O)cc2C1` (centres undefined): the Inotropic potency is 27 nM/kg in assay [4] and 11.4 nM/kg in assay [3]. For the same molecule, the “Delta HR” value in assay [5] was 4 beats min-1; in assay [1], -5 beats min-1. In addition, the values for the Delta blood pressure in assay [6] and in assay [2] were -30 mmHg and -39 mmHg, respectively.

These data come from ChEMBL document CHEMBL1122027, “N-Aralkyl substitution of 2-amino-5,6- and -6,7-dihydroxy-1,2,3,4-tetrahydronaphthalenes. 2. Derivatives of a hypotensive-positive inotropic agent” (1982).
